# Measured values as given in publication PMC8272148, “Antioxidant Serine-(NSAID) Hybrids with Anti-Inflammatory and Hypolipidemic Potency” (Molecules, 2021).
# “And” between values parts separate entries of the source, which are not always exact repeats. Equal entries are not always repeated. Marks after values point to notes of the source that are not given here.
# Assays:
# [1] = test system: rat hepatic microsomal membrane lipid peroxidation; assay: Inhibition of rat hepatic microsomal membrane lipid peroxidation (ferrous ascorbate induced, TBA reactive material); type: biochemical; conditions: after 45 min of incubation; for IC50: rat hepatic microsomal membrane; for Inhibition of Lipid Peroxidation, percent at 1 mM: 1 mM compound
# Method: The peroxidation of the heat-inactivated rat hepatic microsomal fraction was induced by ferrous ascorbate. The studied compounds, in dimethylsulfoxide, were added at concentrations of 1 μM–1 mM. Aliquots were taken from the incubation mixture (37 °C) for 45 min. Lipid peroxidation was assessed spectrophotometrically (535/600 nm) as a 2-thiobarbituric acid reactive material. The incubation mixture and solvents were found not to interfere with the assay.
# soybean lipoxygenase 1-B = target: T1, soybean lipoxygenase 1-B (Glycine max, UniProt P08170); assay: In vitro inhibition of soybean lipoxygenase; type: biochemical; conditions: linoleic acid (100 μM) as substrate, after 7 min of incubation; for inhibition at 100 µM: 100 μM compound, read-out: Lipoxygenase percent inhibition at 100 μM
# T1 sequence (P08170 1-839): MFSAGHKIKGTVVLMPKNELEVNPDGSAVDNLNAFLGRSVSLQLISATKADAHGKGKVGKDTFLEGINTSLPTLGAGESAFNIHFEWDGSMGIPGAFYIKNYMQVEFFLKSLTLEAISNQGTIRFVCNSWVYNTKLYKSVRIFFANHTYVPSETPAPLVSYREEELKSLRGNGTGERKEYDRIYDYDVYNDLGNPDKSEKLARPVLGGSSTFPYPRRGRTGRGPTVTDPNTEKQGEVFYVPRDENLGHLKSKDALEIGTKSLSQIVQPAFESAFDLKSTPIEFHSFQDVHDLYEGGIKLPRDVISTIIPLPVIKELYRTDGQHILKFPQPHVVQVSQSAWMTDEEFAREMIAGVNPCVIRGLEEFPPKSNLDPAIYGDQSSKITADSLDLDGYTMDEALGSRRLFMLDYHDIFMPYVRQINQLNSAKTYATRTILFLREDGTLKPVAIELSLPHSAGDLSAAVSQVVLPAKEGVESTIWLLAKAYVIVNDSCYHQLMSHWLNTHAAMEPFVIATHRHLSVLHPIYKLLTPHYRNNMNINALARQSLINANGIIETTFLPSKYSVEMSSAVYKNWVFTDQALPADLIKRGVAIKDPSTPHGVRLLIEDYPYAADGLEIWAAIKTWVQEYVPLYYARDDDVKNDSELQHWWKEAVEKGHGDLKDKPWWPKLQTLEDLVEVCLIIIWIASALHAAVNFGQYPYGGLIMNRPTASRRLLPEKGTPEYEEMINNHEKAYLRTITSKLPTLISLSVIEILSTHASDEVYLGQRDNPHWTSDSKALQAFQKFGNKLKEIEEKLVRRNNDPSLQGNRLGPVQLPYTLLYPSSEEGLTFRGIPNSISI
# Method: The reaction mixture contained the test compounds, dissolved in absolute ethanol (0.1 mL) at various concentrations, or the solvent (control, 0.1 mL), soybean lipoxygenase dissolved in 0.9% NaCl solution (250 u/mL, 0.2 mL) and sodium linoleate (100 μM) in Tris–HCl buffer, pH 9.0 (2.7 mL). The reaction was followed for 7 min at 28 °C, recording the absorbance of a conjugated diene structure at 234 nm, due to the formation of 13-hydroperoxy-linoleic acid. […] For the estimation of the type of inhibition, the above experiments were repeated, using sodium linoleate at 1 mM, which is higher than the saturating substrate concentration.
# [2] = Interaction with the stable radical DPPH; conditions: DPPH 200 μM, after 30 min
# Method: Compounds, dissolved in absolute ethanol, at concentrations of 25–200 μM, were added to an equal volume of an ethanolic solution of DPPH (final concentration 200 μM) at room temperature (22 ± 2 °C). Absorbance (517 nm) was recorded after 30 min [26]. For the calculation of percent interaction, the residual absorbance of DPPH Ai (at a fixed concentration) after its interaction with the examined compounds (at various concentrations) was compared with the control absorbance Ao, without the addition of compounds, following the equation: (1) Percent interaction=100−(Ai/Ao×100)
# [3] = test system: carrageenan-induced rat paw edema; assay: Carrageenan-induced rat paw edema; type: in vivo, Wistar rats; conditions: ip, 0.15 mmol/kg i.p., 3.5 h after carrageenan, vs controls, read-out: % Edema Reduction
# Method: An amount of 0.1 mL of an aqueous carrageenan solution (1% w/v) was injected into the hind paw of adult Wistar rats (6 rats were used for each compound). The tested compounds (in water with a few drops of Tween 80) were administered i.p. (0.15 mmol/kg) 5 min before the carrageenan administration. The produced edema, after 3.5 h, was estimated as paw weight increase.
# [4] = test system: Triton WR1339 (tyloxapol)-induced hyperlipidemia; assay: Triton WR1339 (tyloxapol)-induced hyperlipidemia in rats; type: in vivo, Wistar rats; conditions: 150 μmol/kg i.p., rat plasma, 24 h, tyloxapol 200 mg/kg i.p.
# Method: The examined compounds (0.15 mmol/kg) were administered i.p. one hour later. Blood was taken from the aorta after 24 h, for the determination of plasma total cholesterol, LDL cholesterol and triglyceride concentration, using commercial kits.
SMILES,IC50 [1],inhibition at 100 µM (soybean lipoxygenase 1-B),Percent Interaction with DPPH ([2]; compound 25 μM),Percent Interaction with DPPH ([2]; compound 50 μM),Percent Interaction with DPPH ([2]; compound 100 μM),Percent Interaction with DPPH ([2]; compound 200 μM),inhibition in vivo at 150 µmol/kg [3],"Inhibition of Lipid Peroxidation, percent at 1 mM [1]",% Reduction LDL-C (LDL cholesterol) [4],% Reduction TC (total cholesterol) [4],% Reduction TG (triglycerides) [4],IC50 (soybean lipoxygenase 1-B),"Inhibition of Lipid Peroxidation, percent at 500 μM ([1]; 500 μM compound)","Inhibition of Lipid Peroxidation, percent at 50 μM ([1]; 50 μM compound)"
"Cc1c(C)c2c(c(C)c1O)CCC(C)(C(=O)NC(CO)C(=O)O)O2 (centres unmarked) [Compound 1, 3-Hydroxy-2-(6-hydroxy-2,5,7,8-tetramethylchroman-2-carboxamido)propanoic acid]",150 µM,30%,19.6%,48.0%,87.0%,90.4%,43%,–,–,–,–,–,–,–
"CC(C)(C)c1cc(C(=O)NC(CO)C(=O)O)cc(C(C)(C)C)c1O (centres unmarked) [Compound 2, 2-(3,5-Di-tert-butyl-4-hydroxybenzamido)-3-hydroxypropanoic acid]",–,15%,–,–,–,lower than 10%,44%,40%/1 mM,–,–,–,–,–,–
"CC(C)(C)c1cc(/C=C/C(=O)NC(CO)C(=O)O)cc(C(C)(C)C)c1O (centres unmarked) [Compound 3, (E)-2-(3-(3,5-di-tert-butyl-4-hydroxyphenyl)acrylamido)-3-hydroxypropanoic acid]",80 µM,20%,12.9%,17.4%,35.9%,82.3%,27%,–,–,–,–,–,–,–
"CCOC(=O)C(CO)NC(=O)C1(C)CCc2c(C)c(O)c(C)c(C)c2O1 (centres unmarked) [Compound 4, Ethyl 3-hydroxy-2-(6-hydroxy-2,5,7,8-tetramethylchroman-2-carboxamido)propanoate]",7.3 µM,15%,24.5%,53.3%,88.2%,92.4%,37%,–,60.2 * %,46.2 ** %,53.4 ** %,–,–,–
"CCOC(=O)C(CO)NC(=O)c1cc(C(C)(C)C)c(O)c(C(C)(C)C)c1 (centres unmarked) [Compound 5, Ethyl 2-(3,5-di-tert-butyl-4-hydroxybenzamido)-3-hydroxypropanoate]",163 µM,–,–,–,–,lower than 10%,47%,–,66.0 ** %,52.3 ** %,62.0 ** %,200 µM,–,–
"CCOC(=O)C(CO)NC(=O)/C=C/c1cc(C(C)(C)C)c(O)c(C(C)(C)C)c1 (centres unmarked) [Compound 6, (E)-ethyl 2-(3-(3,5-di-tert-butyl-4-hydroxyphenyl)acrylamido)-3-hydroxypropanoate]",22 µM,–,17.9%,21.2%,48.6%,88.7%,44%,–,–,–,–,156 µM,–,–
"CCOC(=O)C(COC(=O)C(C)c1ccc(CC(C)C)cc1)NC(=O)C1(C)CCc2c(C)c(O)c(C)c(C)c2O1 (centres unmarked) [Compound 7, Ethyl 2-(6-hydroxy-2,5,7,8-tetramethylchroman-2-carboxamido)-3-((2-(4-isobutylphenyl)propanoyl)oxy)propanoate]",3.4 µM,< 15%,22.6%,54.2%,89.0%,91.6%,45%,–,–,–,–,–,–,–
"CCOC(=O)C(COC(=O)C(C)c1ccc(CC(C)C)cc1)NC(=O)c1cc(C(C)(C)C)c(O)c(C(C)(C)C)c1 (centres unmarked) [Compound 8, Ehyl 2-(3,5-di-tert-butyl-4-hydroxybenzamido)-3-((2-(4-isobutylphenyl)propanoyl)oxy)propanoate]",–,–,–,–,4.0%,18.7%,48%,–,–,–,–,13 µM,30%/500 μM,–
"CCOC(=O)C(COC(=O)C(C)c1ccc(CC(C)C)cc1)NC(=O)/C=C/c1cc(C(C)(C)C)c(O)c(C(C)(C)C)c1 (centres unmarked) [Compound 9, (E)-ethyl 2-(3-(3,5-di-tert-butyl-4-hydroxyphenyl)acrylamido)-3-((2-(4-isobutylphenyl)propanoyl)oxy)propanoate]",–,–,15.5%,31.8%,58.0%,90.9%,52%,–,70% and 70.1 * %,61% and 61.2 ** %,52% and 52.1 ** %,80 µM,–,20%/50 μM
"CCOC(=O)C(COC(=O)C(C)c1cccc(C(=O)c2ccccc2)c1)NC(=O)C1(C)CCc2c(C)c(O)c(C)c(C)c2O1 (centres unmarked) [Compound 10, Ethyl 3-((2-(3-benzoylphenyl)propanoyl)oxy)-2-(6-hydroxy-2,5,7,8-tetramethylchroman-2-carboxamido)propanoate]",2.8 µM,23%,12.4%,30.1%,64.6%,87.0%,42%,–,–,–,–,–,–,–
"CCOC(=O)C(COC(=O)C(C)c1cccc(C(=O)c2ccccc2)c1)NC(=O)c1cc(C(C)(C)C)c(O)c(C(C)(C)C)c1 (centres unmarked) [Compound 11, Ethyl 3-((2-(3-benzoylphenyl)propanoyl)oxy)-2-(3,5-di-tert-butyl-4-hydroxybenzamido)propanoate]",–,–,–,–,–,lower than 10%,67%,30%/1 mM,51.2 ** %,57.6 ** %,44.5 * %,86 µM,–,–
"CC(C)Cc1ccc(C(C)C(=O)O)cc1 (centres unmarked) [Ibuprofen, ibuprofen, reference compound]",–,–,–,–,–,–,36%,–,–,–,–,–,–,–
"CC(C(=O)O)c1cccc(C(=O)c2ccccc2)c1 (centres unmarked) [Ketoprofen, ketoprofen, reference compound]",–,–,–,–,–,–,–,–,–,–,–,220 µM,–,–
"Cc1c(C)c2c(c(C)c1O)CCC(C)(C(=O)O)O2 (centres unmarked) [Trolox, 6-hydroxy-2,5,7,8-tetramethylchroman-2-carboxylic acid, reference compound]",25 µM,–,22.0%,38.0%,90.0%,92.0%,–,–,–,–,–,> 300 µM,–,–
